Data: publication PMC11284788, “NN1213 – A Potent, Long-Acting, and Selective Analog of Human Amylin” (Journal of Medicinal Chemistry, 2024)
Where two headings read alike, the source gives them in different places.

Columns and labels:
rAMY3R = target: T1, rAMY3R (Rattus norvegicus, UniProt P32214+Q9JJ73); test: scintillation proximity binding assay, rAMY3R membranes; parameters: expressed in transfected cells; host or cells: BHK tk-ts 13, transient co-transfection (FuGENE 6)
T1 sequence (P32214 25-479 isoform P32214-2 limits assumed): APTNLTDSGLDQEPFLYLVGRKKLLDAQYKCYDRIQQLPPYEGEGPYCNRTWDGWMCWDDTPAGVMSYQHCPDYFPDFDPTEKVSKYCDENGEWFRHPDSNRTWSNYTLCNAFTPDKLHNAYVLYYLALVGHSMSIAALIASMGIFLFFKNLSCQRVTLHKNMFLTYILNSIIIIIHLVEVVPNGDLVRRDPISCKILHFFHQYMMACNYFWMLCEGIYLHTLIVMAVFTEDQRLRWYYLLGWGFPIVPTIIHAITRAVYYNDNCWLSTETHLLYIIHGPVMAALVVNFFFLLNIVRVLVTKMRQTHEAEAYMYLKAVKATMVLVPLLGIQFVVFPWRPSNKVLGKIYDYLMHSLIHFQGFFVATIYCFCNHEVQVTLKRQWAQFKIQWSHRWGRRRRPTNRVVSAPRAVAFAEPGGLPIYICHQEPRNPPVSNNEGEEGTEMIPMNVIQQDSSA
T1 sequence (Q9JJ73 23-147 partner): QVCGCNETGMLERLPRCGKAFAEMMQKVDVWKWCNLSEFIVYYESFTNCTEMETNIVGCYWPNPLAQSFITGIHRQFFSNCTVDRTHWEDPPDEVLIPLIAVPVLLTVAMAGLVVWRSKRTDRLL

rCTR = target: T2, rCTR (Rattus norvegicus, UniProt P32214); test: scintillation proximity binding assay, rCTR membranes
T2 construct: expressed in transfected cells; host or cells: BHK tk-ts 13, transient (FuGENE 6)
T2 sequence (P32214 25-479 isoform P32214-2 limits assumed): T1 sequence (P32214 25-479 isoform P32214-2 limits assumed)

rat AMY3R = target: T3, rat AMY3R (Rattus norvegicus, UniProt P32214+Q9JJ73); test: cAMP FlashPlate assay, rat AMY3R; assay type: cell-based; conditions: for EC50: cAMP (rat receptor assay)
T3 construct: expressed in transfected cells; host or cells: BHK tk-ts 13, transient co-transfection (FuGENE 6)
T3 sequence (P32214 25-479 isoform P32214-2 limits assumed): T1 sequence (P32214 25-479 isoform P32214-2 limits assumed)
T3 sequence (Q9JJ73 23-147 partner): T1 sequence (Q9JJ73 23-147 partner)

hCTR = target: T4, hCTR (Homo sapiens, UniProt P30988); test: scintillation proximity binding assay, hCTR membranes; parameters: expressed in transfected cells; host or cells: BHK tk-ts 13, transient (FuGENE 6); membranes for the SPA, whole cells for the species-specific assays
T4 sequence (P30988 25-474): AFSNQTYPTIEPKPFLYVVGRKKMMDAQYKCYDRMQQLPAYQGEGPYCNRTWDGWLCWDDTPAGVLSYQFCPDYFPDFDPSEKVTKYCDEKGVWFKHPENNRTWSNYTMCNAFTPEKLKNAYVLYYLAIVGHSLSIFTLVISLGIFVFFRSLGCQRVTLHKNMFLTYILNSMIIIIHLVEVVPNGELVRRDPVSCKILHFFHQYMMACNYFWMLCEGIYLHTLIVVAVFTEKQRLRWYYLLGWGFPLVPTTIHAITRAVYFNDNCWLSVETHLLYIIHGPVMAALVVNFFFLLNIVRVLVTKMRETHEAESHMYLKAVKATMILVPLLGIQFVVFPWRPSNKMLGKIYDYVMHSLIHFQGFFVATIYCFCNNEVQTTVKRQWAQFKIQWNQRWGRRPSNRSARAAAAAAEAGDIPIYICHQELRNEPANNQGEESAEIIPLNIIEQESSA

- IC50 (rAMY3R; SPA binding assay, Tables S13 and S15, read-out: rAMY3R pIC50 (converted)): 1.29 nM
- IC50 (rAMY3R; SPA, BHK cell membranes, 125I-rat amylin, 120 min 25 °C, read-out: rAMY3R IC50): 1.29 nM
- ratio rCTR/rAMY3R (rAMY3R; ratio of binding IC50 values): 39
- IC50 (rCTR; SPA binding assay, Tables S13 and S15, read-out: rCTR pIC50 (converted)): 50.1 nM
- IC50 (rCTR; SPA, BHK cell membranes, 125I-Calcitonin 75 pM, 120 min 25 °C, read-out: rCTR IC50): 49.8 nM
- EC50 (rat AMY3R; Tables S12 and S14, read-out: rAMY3R pEC50 (converted)): 0.933 nM
- EC50 (rat AMY3R; transiently transfected BHK tk-ts 13 cells, FlashPlate, 30 min room temperature, 2% HSA, read-out: rAMY3R EC50): 0.926 nM
- ratio rCTR/rAMY3R (rat AMY3R; ratio of cAMP EC50 values): 18
- IC50 (hCTR; SPA binding assay, Tables S13 and S15, read-out: hCTR pIC50 (converted)): 14.1 nM
- IC50 (hCTR; SPA, BHK cell membranes, 125I-Calcitonin 75 pM, 120 min 25 °C, read-out: hCTR IC50): 14.1 nM
SMILES: CC[C@H](C)[C@H](NC(=O)[C@H](C)NC(=O)CNC(=O)[C@H](Cc1ccccc1)NC(=O)[C@H](CC(N)=O)NC(=O)[C@@H]1CCCN1C(=O)[C@H](CO)NC(=O)[C@H](CO)NC(=O)[C@H](Cc1c[nH]cn1)NC(=O)[C@H](CCCNC(=N)N)NC(=O)[C@H](CC(C)C)NC(=O)[C@H](Cc1ccccc1)NC(=O)[C@H](CC(N)=O)NC(=O)[C@H](C)NC(=O)[C@H](CC(C)C)NC(=O)[C@H](CCCNC(=N)N)NC(=O)[C@H](CCC(N)=O)NC(=O)[C@@H](NC(=O)[C@H](C)NC(=O)[C@@H]1CSSC[C@H](NC(=O)[C@H](CCCCN)NC(=O)CC[C@H](NC(=O)CCCCCCCCCCCCCCCCCCC(=O)O)C(=O)O)C(=O)N[C@@H](CC(N)=O)C(=O)N[C@@H]([C@@H](C)O)C(=O)N[C@@H](C)C(=O)N[C@@H]([C@@H](C)O)C(=O)N1)[C@@H](C)O)C(=O)N1CCC[C@H]1C(=O)N[C@@H](CO)C(=O)N[C@@H](CO)C(=O)N[C@H](C(=O)N[C@@H](CC(N)=O)C(=O)N[C@H](C(=O)NCC(=O)N[C@@H](Cc1c[nH]cn1)C(=O)N[C@@H](CC(N)=O)C(=O)N[C@H](C(=O)N[C@@H](Cc1ccc(O)cc1)C(N)=O)[C@@H](C)O)C(C)C)[C@@H](C)O [Peptide 17]
